Where two headings read alike, the source gives them in different places.
Columns and labels:
[1] = tested on: influenza A virus strain A/WSN/33 (H1N1); test: microbe, parasite or virus in culture; assay type: cell-based; conditions: for EC50: Influenza A virus, MDCK, 48 h
MDCK cells = test: Cytotoxicity assay (WST-8) with no viral infection; conditions: 300 μg/mL, uninfected MDCK cells, Figure 3
influenza virus = assay type: cell-based; conditions: 5 μg/mL, influenza virus-infected MDCK cells, data not shown

| Structure (SMILES) | Effect on cell survival rate of virus-infected cells (effective / ineffective) [1] | EC50 [1] [µM] | further results |
| --- | --- | --- | --- |
| O=C(/C=C/c1ccc(O)c(O)c1)O[C@@H]1C[C@](O)(C(=O)O)C[C@@H](OC(=O)/C=C/c2ccc(O)c(O)c2)[C@H]1OC(=O)/C=C/c1ccc(O)c(O)c1 [3,4,5-Tricaffeoylquinic acid, 3,4,5-tricaffeoylquinic acid] | effective | 115 | Cell survival rate of infected cells at 300 μg/mL [1]: dropped to nearly zero; Effect on cell survival of infected cells at 100 μg/mL [1]: effective |
| O=C(/C=C/c1ccc(O)c(O)c1)O[C@@H]1[C@H](O)C[C@@](O)(C(=O)O)C[C@H]1OC(=O)/C=C/c1ccc(O)c(O)c1 [3,4-Dicaffeoylquinic acid] | effective | 81.1 ± 2.9 | EC50 ([1]; read-out: EC50 value on the cell survival): 41.9 µg/mL |
| O=C(/C=C/c1ccc(O)c(O)c1)O[C@@H]1C[C@](O)(C(=O)O)C[C@@H](OC(=O)/C=C/c2ccc(O)c(O)c2)[C@H]1O [3,5-Dicaffeoylquinic acid, 3,5-dicaffeoylquinic acid] | effective | 208 |  |
| O=C(/C=C/c1ccc(O)c(O)c1)O[C@H]1[C@H](O)C[C@](O)(C(=O)O)C[C@H]1OC(=O)/C=C/c1ccc(O)c(O)c1 [4,5-Dicaffeoylquinic acid, 4,5-dicaffeoylquinic acid] | effective | 281 |  |
| O=C(O)/C=C/c1ccc(O)c(O)c1 [Caffeic acid, caffeic acid] | effective | 191 | Cell toxicity (MDCK cells): exhibited cell toxicities; Cell survival rate of infected cells at 300 μg/mL [1]: dropped to nearly zero; Effect on cell survival of infected cells at 100 μg/mL [1]: effective |
| O=C(/C=C/c1ccc(O)c(O)c1)O[C@@H]1C[C@](O)(C(=O)O)C[C@@H](O)[C@H]1O [Chlorogenic acid] | effective | 342 | Cell toxicity (MDCK cells): exhibited cell toxicities; Cell survival rate of infected cells at 300 μg/mL [1]: dropped to nearly zero; Effect on cell survival of infected cells at 100 μg/mL [1]: effective |
| O=C(O)[C@]1(O)C[C@@H](O)[C@@H](O)[C@H](O)C1 [Quinic acid, quinic acid] | ineffective | > 1560 |  |
| CC(C)=CCc1cc(/C=C/C(=O)O)cc(CC=C(C)C)c1O [artepillin C] | did not have any cell surviving activity |  |  |
| CC(C)=CCc1cc(/C=C/C(=O)O)ccc1O [drupanin] | did not have any cell surviving activity |  |  |
| COc1ccc(-c2oc3cc(O)cc(O)c3c(=O)c2O)cc1 [kemferide] | did not have any cell surviving activity |  |  |
| O=C(O)/C=C/c1ccc(O)cc1 [p-coumaric acid] | did not have any cell surviving activity |  |  |
| NC(=O)c1ncn([C@@H]2O[C@H](CO)[C@@H](O)[C@H]2O)n1 [ribavirin] |  |  | Quantity of mRNA for HA relative to mRNA for GAPDH (influenza virus): less than 10% |

Reference: PMC3057164, “Caffeoylquinic Acids Are Major Constituents with Potent Anti-Influenza Effects in Brazilian Green Propolis Water Extract” (Evidence-based Complementary and Alternative Medicine : eCAM, 2011)
